In US10759751B2, “Substituted spirocyclohexanes as muscarinic M1 receptor and/or M4 receptor agonists” (Heptares Therapeutics Limited, priority 2016, dated 2020):
One block for each compound: values may come before it.

Assays:
[1] = target: T1, human muscarinic M1 receptor (Homo sapiens, UniProt P11229); assay: Alphascreen Surefire phospho-ERK1/2 functional assay, M1; type: cell-based; settings: for EC50: phospho-ERK1/2, read-out: pEC50 M1 (converted); for Emax: CHO, read-out: M1 % Emax cf. ACh, CHO cells stably expressing human M1; for selectivity for the M1 receptor relative to the M4 receptor: M1 versus M4, in words
T1 sequence (P11229 1-460): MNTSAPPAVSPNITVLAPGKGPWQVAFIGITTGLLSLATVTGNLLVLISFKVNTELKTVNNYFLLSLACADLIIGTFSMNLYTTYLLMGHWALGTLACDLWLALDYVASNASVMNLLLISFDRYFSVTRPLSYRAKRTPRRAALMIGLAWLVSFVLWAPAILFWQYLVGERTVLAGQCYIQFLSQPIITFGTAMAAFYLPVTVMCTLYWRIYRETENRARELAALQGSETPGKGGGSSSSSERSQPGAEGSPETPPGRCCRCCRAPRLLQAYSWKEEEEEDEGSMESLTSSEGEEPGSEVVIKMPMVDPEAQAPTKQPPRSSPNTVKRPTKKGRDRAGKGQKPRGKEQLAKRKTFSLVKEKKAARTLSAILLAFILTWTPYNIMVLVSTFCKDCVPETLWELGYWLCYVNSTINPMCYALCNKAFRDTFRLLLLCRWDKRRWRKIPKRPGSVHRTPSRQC
Protocol: (§1) Functional assays were performed using the Alphascreen Surefire phospho-ERK1/2 assay (Crouch & Osmond, Comb. Chem. High Throughput Screen, 2008). ERK1/2 phosphorylation is a downstream consequence of both Gq/11 and Gi/o protein coupled receptor activation, making it highly suitable for the assessment of M1, M3 (Gq/11 coupled) and M2, M4 receptors (Gi/o coupled), rather than using different assay formats for different receptor subtypes. CHO cells stably expressing the human muscarinic M1, M2, M3 or M4 receptor were plated (25K/well) onto 96-well tissue culture plates in MEM-alpha+10% dialysed FBS. Once adhered, cells were serum-starved overnight. Agonist stimulation was performed by the addition of 5 μL agonist to the cells for 5 min (37° C.). Media was removed and 50 μL of lysis buffer added. After 15 min, a 4 μL sample was transferred to 384-well plate and 7 μL of detection mixture added. Plates were incubated for 2 h with gentle agitation in the dark and then read on a PHERAstar plate reader.
(§2) pEC50 and Emax figures were calculated from the resulting data for each receptor subtype.

[2] = target: T2, human muscarinic M4 receptor (Homo sapiens, UniProt P08173); assay: Alphascreen Surefire phospho-ERK1/2 functional assay, M4; type: cell-based; settings: for EC50: read-out: pEC50 M4 (converted); for Emax: CHO, read-out: M4 % Emax cf. ACh, CHO cells stably expressing human M4
T2 construct: expressed in transfected cells
T2 sequence (P08173 1-479): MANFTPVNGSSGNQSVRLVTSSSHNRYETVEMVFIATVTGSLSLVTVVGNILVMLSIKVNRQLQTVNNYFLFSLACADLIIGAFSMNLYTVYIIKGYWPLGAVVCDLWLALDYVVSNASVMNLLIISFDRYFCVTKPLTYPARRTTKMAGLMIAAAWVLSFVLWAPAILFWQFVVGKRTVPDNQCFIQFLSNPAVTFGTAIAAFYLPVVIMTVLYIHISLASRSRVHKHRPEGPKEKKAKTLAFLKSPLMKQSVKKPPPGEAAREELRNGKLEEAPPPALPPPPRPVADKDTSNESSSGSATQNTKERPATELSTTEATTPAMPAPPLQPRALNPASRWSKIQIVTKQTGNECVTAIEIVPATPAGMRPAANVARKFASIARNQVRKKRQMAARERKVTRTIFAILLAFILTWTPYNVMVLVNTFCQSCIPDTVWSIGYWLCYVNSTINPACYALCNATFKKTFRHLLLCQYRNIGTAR
Protocol: as §1, §2

[3] = CHO cells stably expressing human M1
[4] = CHO cells stably expressing human M4, phospho-ERK1/2

- EC50 [1, 3]: 0.0407 µM
- Emax ([1]; Emax relative to ACh): 85%
SMILES: CCOC(=O)N1CCN(C2CCC(C#N)(c3ccccc3)CC2)CC(O)C1 (mixture of isomers) [3-26 mixture of isomers]

- EC50 [2, 4]: > 20 µM
- Emax ([2]; Emax relative to ACh): 8%
- EC50 [1, 3]: 0.0389 µM
- Emax ([1]; Emax relative to ACh): 39%
SMILES: CCOC(=O)N1CC2(CCN(C3CCC4(CC3)C(=O)Nc3ccccc34)C2)C1 (mixture of isomers) [10-1 mixture of isomers]

- EC50 [2, 4]: 1.78 µM
- Emax ([2]; Emax relative to ACh): 49%
- EC50 [1, 3]: 0.229 µM
- Emax ([1]; Emax relative to ACh): 116%
SMILES: CCOC(=O)N[C@@H]1CCN(C2CCC(C#N)(c3cccc(F)c3)CC2)C1 (single isomer, unassigned) [1-6 Isomer 2]

- EC50 [2, 4]: > 20 µM
- Emax ([2]; Emax relative to ACh): 7%
- EC50 [1, 3]: 0.269 µM
- Emax ([1]; Emax relative to ACh): 39%
SMILES: CCOC(=O)N[C@H]1CCN(C2CCC(C#N)(c3ccc(Cl)cn3)CC2)C1 (single isomer, unassigned) [1-15 Isomer 2]

- EC50 [2, 4]: 0.871 µM
- Emax ([2]; Emax relative to ACh): 84%
- EC50 [1, 3]: 0.158 µM
- Emax ([1]; Emax relative to ACh): 103%
SMILES: CCOC(=O)N[C@@H]1CCN(C2CCC3(CC2)C(=O)Nc2ccccc23)C1 (single isomer, unassigned) [2-2 isomer 1]

- EC50 [2, 4]: > 20 µM
- Emax ([2]; Emax relative to ACh): 1%
- EC50 [1, 3]: 0.0776 µM
- Emax ([1]; Emax relative to ACh): 32%
SMILES: CCOC(=O)N[C@H]1CCN(C2CCC3(CC2)C(=O)Nc2c(C)cccc23)C1 (single isomer, unassigned) [2-3 isomer 1]

- M4 % Emax cf. ACh ([2]; CHO cells stably expressing human M4, Emax relative to ACh): 1%
- pEC50 M4 [2, 4]: < 4.7
- M1 % Emax cf. ACh ([1]; CHO cells stably expressing human M1, Emax relative to ACh): 35%
- EC50 [1, 3]: 1.78 µM
SMILES: CCOC(=O)N[C@H]1CCN(C2CCC3(CC2)C(=O)Nc2cc(F)ccc23)C1 (single isomer, unassigned) [2-7 isomer 1]

- EC50 [2, 4]: > 20 µM
- Emax ([2]; Emax relative to ACh): 10%
- EC50 [1, 3]: 0.0933 µM
- Emax ([1]; Emax relative to ACh): 59%
SMILES: CCOC(=O)N[C@H]1CCN(C2CCC3(CC2)C(=O)Nc2ccc(F)cc23)C1 (single isomer, unassigned) [2-8 isomer 1]

SMILES: CCOC(=O)N[C@H]1CCN(C2CCC(C#N)(c3ccccc3)CC2)C1 (single isomer, unassigned) [Example 1-1]
- selectivity for the M1 receptor relative to the M4 receptor [1]: highly selective for the M1 receptor relative to the M4 receptor

SMILES: CCOC(=O)N[C@H]1CCN(C2CCC(C#N)(c3cccc(F)c3)CC2)C1 (single isomer, unassigned) [Example 1-3]
- selectivity for the M1 receptor relative to the M4 receptor [1]: highly selective for the M1 receptor relative to the M4 receptor

SMILES: CCOC(=O)N[C@H]1CCN(C2CCC(C#N)(c3ccc(F)cc3)CC2)C1 (single isomer, unassigned) [Example 1-4]
- selectivity for the M1 receptor relative to the M4 receptor [1]: highly selective for the M1 receptor relative to the M4 receptor

SMILES: CCOC(=O)N[C@H]1CCN(C2CCC(C#N)(c3cccc(C)c3)CC2)C1 (single isomer, unassigned) [Example 1-9]
- selectivity for the M1 receptor relative to the M4 receptor [1]: highly selective for the M1 receptor relative to the M4 receptor

SMILES: CCOC(=O)N[C@H]1CCN(C2CCC(C#N)(c3cccc(Cl)c3)CC2)C1 (single isomer, unassigned) [Example 1-10]
- selectivity for the M1 receptor relative to the M4 receptor [1]: highly selective for the M1 receptor relative to the M4 receptor

SMILES: CCOC(=O)N[C@H]1CCN(C2CCC3(CC2)C(=O)Nc2ccccc23)C1 (single isomer, unassigned) [Example 2-1]
- selectivity for the M1 receptor relative to the M4 receptor [1]: highly selective for the M1 receptor relative to the M4 receptor

SMILES: CCOC(=O)N[C@H]1CCN(C2CCC3(CC2)C(=O)Nc2c(C)cccc23)C1 (single isomer, unassigned) [Example 2-3]
- selectivity for the M1 receptor relative to the M4 receptor [1]: highly selective for the M1 receptor relative to the M4 receptor

SMILES: CCOC(=O)N[C@H]1CCN(C2CCC3(CC2)C(=O)Nc2cc(C)ccc23)C1 (single isomer, unassigned) [Example 2-4]
- selectivity for the M1 receptor relative to the M4 receptor [1]: highly selective for the M1 receptor relative to the M4 receptor

SMILES: CCOC(=O)N[C@H]1CCN(C2CCC3(CC2)C(=O)Nc2ccc(C)cc23)C1 (single isomer, unassigned) [Example 2-5]
- selectivity for the M1 receptor relative to the M4 receptor [1]: highly selective for the M1 receptor relative to the M4 receptor

SMILES: CCOC(=O)N[C@H]1CCN(C2CCC3(CC2)C(=O)Nc2ccc(OC)cc23)C1 (single isomer, unassigned) [Example 2-10]
- selectivity for the M1 receptor relative to the M4 receptor [1]: highly selective for the M1 receptor relative to the M4 receptor

SMILES: CCOC(=O)N[C@H]1CCN(C2CCC3(CC2)C(=O)Nc2ncc(Cl)cc23)C1 (single isomer, unassigned) [Example 2-17]
- selectivity for the M1 receptor relative to the M4 receptor [1]: highly selective for the M1 receptor relative to the M4 receptor

SMILES: CCOC(=O)N[C@H]1CCN(C2CCC3(CC2)C(=O)Nc2cc(F)ccc23)C1 (stereo partly drawn) [Example 2-7, ethyl [(3S)-1-(6′-fluoro-2′-oxo-1′,2′-dihydrospiro[cyclohexane-1,3′-indol]-4-yl)pyrrolidin-3-yl]carbamate]
- selectivity for the M1 receptor relative to the M4 receptor [1]: highly selective for the M1 receptor relative to the M4 receptor

SMILES: CCOC(=O)N[C@H]1CCN(C2CCC3(CC2)C(=O)Nc2ccc(F)cc23)C1 (stereo partly drawn) [Example 2-8, ethyl [(3S)-1-(5′-fluoro-2′-oxo-1′,2′-dihydrospiro[cyclohexane-1,3′-indol]-4-yl)pyrrolidin-3-yl]carbamate]
- selectivity for the M1 receptor relative to the M4 receptor [1]: highly selective for the M1 receptor relative to the M4 receptor

SMILES: CCOC(=O)N1CCCN(C2CCC(C#N)(c3ccc(OC)cn3)CC2)CC1 (centres unmarked) [Example 3-19, ethyl 4-[4-(5-methoxypyridin-2-yl)-4-cyanocyclohexyl]-1,4-diazepane-1-carboxylate]
- selectivity for the M1 receptor relative to the M4 receptor [1]: highly selective for the M1 receptor relative to the M4 receptor

SMILES: CCOC(=O)N1CCCN(C2CCC(C#N)(c3ccc(OCC)cn3)CC2)CC1 (centres unmarked) [Example 3-20, ethyl 4-[4-cyano-4-(5-ethoxypyridin-2-yl)cyclohexyl]-1,4-diazepane-1-carboxylate]
- selectivity for the M1 receptor relative to the M4 receptor [1]: highly selective for the M1 receptor relative to the M4 receptor

SMILES: C#CCOC(=O)N1CCCN(C2CCC(C#N)(c3ccc(OC)cn3)CC2)CC1 (centres unmarked) [Example 3-31, prop-2-yn-1-yl 4-[4-cyano-4-(5-methoxypyridin-2-yl)cyclohexyl]-1,4-diazepane-1-carboxylate]
- selectivity for the M1 receptor relative to the M4 receptor [1]: highly selective for the M1 receptor relative to the M4 receptor

SMILES: CC#CCOC(=O)N1CCCN(C2CCC(C#N)(c3ccc(OC)cn3)CC2)CC1 (centres unmarked) [Example 3-32, but-2-yn-1-yl 4-[4-cyano-4-(5-methoxypyridin-2-yl)cyclohexyl]-1,4-diazepane-1-carboxylate]
- selectivity for the M1 receptor relative to the M4 receptor [1]: highly selective for the M1 receptor relative to the M4 receptor

SMILES: CCOC(=O)N1CCCN(C2CCC3(CC2)C(=O)Nc2ccc(C)cc23)CC1 (centres unmarked) [Example 4-7, ethyl 4-(5′-methyl-2′-oxo-1′,2′-dihydrospiro[cyclohexane-1,3′-indol]-4-yl)-1,4-diazepane-1-carboxylate]
- selectivity for the M1 receptor relative to the M4 receptor [1]: highly selective for the M1 receptor relative to the M4 receptor

SMILES: CCOC(=O)N1CCCN(C2CCC3(CC2)C(=O)Nc2ccc(OC)cc23)CC1 (centres unmarked) [Example 4-12, ethyl 4-(5′-methoxy-2′-oxo-1′,2′-dihydrospiro[cyclohexane-1,3′-indol]-4-yl)-1,4-diazepane-1-carboxylate]
- selectivity for the M1 receptor relative to the M4 receptor [1]: highly selective for the M1 receptor relative to the M4 receptor

SMILES: CCOC(=O)N1CCCN(C2CCC(c3nc(CC)c(C)[nH]3)CC2)CC1 (centres unmarked) [Example 5-1, ethyl 4-[4-(4-ethyl-5-methyl-1H-imidazol-2-yl)cyclohexyl]-1,4-diazepane-1-carboxylate]
- selectivity for the M1 receptor relative to the M4 receptor [1]: highly selective for the M1 receptor relative to the M4 receptor
